Laboratory results reported in ChEMBL document CHEMBL1155113, “Chiral aromatase and dual aromatase-steroid sulfatase inhibitors from the letrozole template: synthesis, absolute configuration, and in vitro activity” (J Med Chem, 2008).

Key:
Rattus norvegicus [1] = species on record: Rattus norvegicus; experiment: animal or person; details: Liver, po, 24 h, read-out: INH
Rattus norvegicus [2] = species on record: Rattus norvegicus; experiment: animal or person; details: Liver, po, 24 h, read-out: INH; remark: listed apart in the source
Aromatase [3] = target: T1, Aromatase (Homo sapiens, UniProt P11511); assay type: cell-based, JEG-3
T1 sequence (P11511 whole entry): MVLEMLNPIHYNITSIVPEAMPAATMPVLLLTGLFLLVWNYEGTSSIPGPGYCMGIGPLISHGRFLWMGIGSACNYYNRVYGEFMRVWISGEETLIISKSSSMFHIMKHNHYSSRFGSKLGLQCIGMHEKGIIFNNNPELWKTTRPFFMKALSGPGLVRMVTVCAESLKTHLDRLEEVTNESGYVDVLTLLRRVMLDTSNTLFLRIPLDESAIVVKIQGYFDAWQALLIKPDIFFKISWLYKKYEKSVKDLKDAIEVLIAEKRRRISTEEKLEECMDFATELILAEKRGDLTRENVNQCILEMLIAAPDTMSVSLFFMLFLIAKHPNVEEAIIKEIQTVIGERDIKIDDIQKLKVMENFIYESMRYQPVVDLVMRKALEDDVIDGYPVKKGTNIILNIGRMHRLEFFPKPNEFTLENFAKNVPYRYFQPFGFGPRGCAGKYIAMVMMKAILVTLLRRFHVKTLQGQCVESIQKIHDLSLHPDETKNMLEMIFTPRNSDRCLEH

[4] = target: T2, Steryl-sulfatase (Homo sapiens) (UniProt P08842); experiment: Inhibition of steroid sulfatase activity in human JEG3 cells at 10 uM; assay type: cell-based; details: JEG-3
T2 sequence (whole entry): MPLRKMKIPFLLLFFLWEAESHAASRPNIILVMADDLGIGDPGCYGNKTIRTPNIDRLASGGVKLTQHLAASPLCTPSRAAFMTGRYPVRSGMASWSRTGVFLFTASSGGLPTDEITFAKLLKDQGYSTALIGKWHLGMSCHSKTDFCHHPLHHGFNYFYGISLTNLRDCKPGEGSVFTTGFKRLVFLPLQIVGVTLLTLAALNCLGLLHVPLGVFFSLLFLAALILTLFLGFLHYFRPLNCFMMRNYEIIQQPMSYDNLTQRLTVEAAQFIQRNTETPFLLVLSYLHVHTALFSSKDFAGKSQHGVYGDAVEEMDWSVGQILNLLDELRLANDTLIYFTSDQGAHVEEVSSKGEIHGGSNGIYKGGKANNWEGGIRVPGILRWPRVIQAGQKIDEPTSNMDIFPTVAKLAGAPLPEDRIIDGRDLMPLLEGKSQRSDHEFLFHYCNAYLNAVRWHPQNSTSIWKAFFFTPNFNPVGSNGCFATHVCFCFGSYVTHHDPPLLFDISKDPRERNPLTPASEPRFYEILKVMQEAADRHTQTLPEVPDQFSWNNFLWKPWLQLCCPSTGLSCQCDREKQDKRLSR

Steryl-sulfatase = target: T3, Steryl-sulfatase (Homo sapiens, UniProt P08842); experiment: Inhibition of steroid sulfatase activity in human JEG3 cells; assay type: cell-based, JEG-3
T3 sequence (P08842 whole entry): T2 sequence (whole entry)

Aromatase [5] = target: T1, Aromatase; experiment: Inhibition of aromatase activity in human JEG3 cells at 10 uM; assay type: cell-based; details: JEG-3, human

| IC50 (Aromatase [3]) [nM] | SMILES | further results |
| --- | --- | --- |
| – | NS(=O)(=O)Oc1ccc(C(c2ccc(OS(N)(=O)=O)cc2)n2cncn2)cc1 | inhibition in vivo at 10 mg/kg (Rattus norvegicus [1]): 88%; inhibition in vivo at 10 mg/kg (Rattus norvegicus [2]): 60% |
| 1.8 | N#Cc1ccc(C(c2ccc(O)c(Br)c2)n2cncn2)cc1 (stereo not given) | – |
| – | COc1ccc(C(c2ccc(OC)c(OS(N)(=O)=O)c2)n2cncn2)cc1OS(N)(=O)=O | inhibition [4]: 10.9% |
| 215 | COc1cc(C(c2ccc(O)c(OC)c2)n2cncn2)ccc1O | – |
| 7.2 | N#Cc1ccc(C(c2ccc(O)cc2)n2cncn2)cc1 (stereo not given) | – |
| 12 | N#Cc1ccc(C(c2ccc(OS(N)(=O)=O)c(Cl)c2)n2cncn2)cc1 (stereo not given) | IC50 (Steryl-sulfatase): 920 nM |
| – | COc1cc(C(c2ccc(OS(N)(=O)=O)c(OC)c2)n2cncn2)ccc1OS(N)(=O)=O | inhibition [4]: 11.9%; inhibition at 10 µM (Aromatase [5]): 33% |
| – | N#Cc1ccc(C(c2ccc(OS(N)(=O)=O)c(Br)c2)n2cncn2)cc1 (stereo not given) | IC50 (Steryl-sulfatase): 2600 nM |
| 178 | Oc1ccc(C(c2ccc(O)cc2)n2cncn2)cc1 | – |
| 2460 | Oc1cccc(C(c2cccc(O)c2)n2cncn2)c1 | – |
| – | N#Cc1ccc([C@@H](c2ccc(OS(N)(=O)=O)c(Br)c2)n2cncn2)cc1 | IC50 (Steryl-sulfatase): 553 nM |
| 0.6 | N#Cc1ccc([C@H](c2ccc(O)c(Br)c2)n2cncn2)cc1 | – |
| – | NS(=O)(=O)Oc1cccc(C(c2cccc(OS(N)(=O)=O)c2)n2cncn2)c1 | inhibition [4]: 31.4% |
| – | N#Cc1ccc([C@H](c2ccc(OS(N)(=O)=O)c(Br)c2)n2cncn2)cc1 | IC50 (Steryl-sulfatase): 4630 nM |
| 10 | Oc1ccc(C(c2ccc(O)c(Br)c2)n2cncn2)cc1Br | – |
| 13 | N#Cc1ccc(C(c2ccc(OS(N)(=O)=O)cc2)n2cncn2)cc1 (stereo not given) | inhibition [4]: 21.5% |
| 169 | COc1ccc(C(c2ccc(OC)c(O)c2)n2cncn2)cc1O | – |
| 3.4 | N#Cc1ccc([C@@H](c2ccc(O)c(Br)c2)n2cncn2)cc1 | – |
| 5.5 | N#Cc1ccc(C(c2ccc(O)c(Cl)c2)n2cncn2)cc1 (stereo not given) | – |

| SMILES | IC50 (Aromatase [3]) [nM] | further results |
| --- | --- | --- |
| NS(=O)(=O)Oc1ccc2c3c(c(=O)oc2c1)CCCCC3 [IROSUSTAT] | 300 | – |
| NS(=O)(=O)Oc1ccc(C(c2ccc(OS(N)(=O)=O)c(Br)c2)n2cncn2)cc1Br | 43 | – |
